Experimental data taken from patent US12077503B2, “Substituted cyclic amides and their use as herbicides” (FMC CORPORATION, priority 2015, dated 2024).

Experiments:
Type in all cases: in vivo
[1] = tested on: Kochia (Kochia scoparia); assay: Test A preemergence; conditions: Bassia scoparia, pre-emergence, 240 h, preemergence, 0 to 100 scale where 0 is no effect and 100 is complete control, read-out: Kochia plant response rating; for pest or weed control at 125 g/ha: 125 g ai/ha, approx. 10 d; for pest or weed control at 500 g/ha: 500 g ai/ha
How it was run: (§1)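 Treatment is preemergence as a directed soil spray after planting, or postemergence at the one- to two-leaf stage, with test chemical in a non-phytotoxic solvent mixture plus surfactant. Plants stay in the greenhouse about 10 d before visual injury scoring on a 0 to 100 scale versus untreated controls.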

[2] = tested on: barnyardgrass (Echinochloa crus-galli); assay: Test A preemergence; conditions: Echinochloa crus-galli, pre-emergence, 240 h, preemergence, 0 to 100 scale where 0 is no effect and 100 is complete control, read-out: Barnyardgrass plant response rating; for pest or weed control at 125 g/ha: 125 g ai/ha, approx. 10 d; for pest or weed control at 500 g/ha: 500 g ai/ha
How it was run: as §1

[3] = tested on: giant foxtail (Setaria faberii); assay: Test A preemergence; conditions: Setaria faberi, pre-emergence, 240 h, preemergence, 0 to 100 scale where 0 is no effect and 100 is complete control, read-out: Foxtail, Giant plant response rating; for pest or weed control at 125 g/ha: 125 g ai/ha, approx. 10 d; for pest or weed control at 500 g/ha: 500 g ai/ha
How it was run: as §1

[4] = tested on: pigweed (Amaranthus retroflexus); assay: Test A preemergence; conditions: Amaranthus retroflexus, pre-emergence, 240 h, preemergence, 0 to 100 scale where 0 is no effect and 100 is complete control, read-out: Pigweed plant response rating; for pest or weed control at 125 g/ha: 125 g ai/ha, approx. 10 d; for pest or weed control at 500 g/ha: 500 g ai/ha
[5] = tested on: ragweed (common ragweed, Ambrosia elatior); assay: Test A preemergence; conditions: Ambrosia artemisiifolia, pre-emergence, 240 h, preemergence, 0 to 100 scale where 0 is no effect and 100 is complete control, read-out: Ragweed plant response rating; for pest or weed control at 125 g/ha: 125 g ai/ha, approx. 10 d; for pest or weed control at 500 g/ha: 500 g ai/ha
How it was run: as §1

[6] = tested on: ryegrass, Italian (Italian ryegrass, Lolium multiflorum); assay: Test A preemergence; conditions: Lolium multiflorum, pre-emergence, 240 h, preemergence, 0 to 100 scale where 0 is no effect and 100 is complete control, read-out: Ryegrass, Italian plant response rating; for pest or weed control at 125 g/ha: 125 g ai/ha, approx. 10 d; for pest or weed control at 500 g/ha: 500 g ai/ha
How it was run: as §1

[7] = tested on: Galium (catchweed bedstraw, Galium aparine); assay: Test A postemergence; conditions: Galium, post-emergence, 240 h, postemergence, read-out: Galium plant response rating; for pest or weed control at 125 g/ha: 125 g ai/ha, visual injury on 0 to 100 scale (0 no effect, 100 complete control), approx. 10 d; for pest or weed control at 500 g/ha: 500 g ai/ha, 0 to 100 scale, 0 is no effect, 100 is complete control
How it was run: as §1

[8] = tested on: Kochia (Kochia scoparia); assay: Test A postemergence; conditions: Bassia scoparia, post-emergence, 240 h, postemergence, read-out: Kochia plant response rating; for pest or weed control at 125 g/ha: 125 g ai/ha, visual injury on 0 to 100 scale (0 no effect, 100 complete control), approx. 10 d; for pest or weed control at 500 g/ha: 500 g ai/ha, 0 to 100 scale, 0 is no effect, 100 is complete control
How it was run: as §1

[9] = tested on: barnyardgrass (Echinochloa crus-galli); assay: Test A postemergence; conditions: Echinochloa crus-galli, post-emergence, 240 h, postemergence, read-out: Barnyardgrass plant response rating; for pest or weed control at 125 g/ha: 125 g ai/ha, visual injury on 0 to 100 scale (0 no effect, 100 complete control), approx. 10 d; for pest or weed control at 500 g/ha: 500 g ai/ha, 0 to 100 scale, 0 is no effect, 100 is complete control
How it was run: as §1

[10] = tested on: blackgrass (Alopecurus myosuroides); assay: Test A postemergence; conditions: Alopecurus myosuroides, post-emergence, 240 h, postemergence, read-out: Blackgrass plant response rating; for pest or weed control at 125 g/ha: 125 g ai/ha, visual injury on 0 to 100 scale (0 no effect, 100 complete control), approx. 10 d; for pest or weed control at 500 g/ha: 500 g ai/ha, 0 to 100 scale, 0 is no effect, 100 is complete control
How it was run: as §1

[11] = tested on: corn (Zea mays); assay: Test A postemergence; conditions: Zea mays, post-emergence, 240 h, postemergence, read-out: Corn plant response rating; for plant injury at 125 g/ha: 125 g ai/ha, visual injury on 0 to 100 scale (0 no effect, 100 complete control), approx. 10 d; for plant injury at 500 g/ha: 500 g ai/ha, 0 to 100 scale, 0 is no effect, 100 is complete control
How it was run: as §1

[12] = tested on: giant foxtail (Setaria faberii); assay: Test A postemergence; conditions: Setaria faberi, post-emergence, 240 h, postemergence, read-out: Foxtail, Giant plant response rating; for pest or weed control at 125 g/ha: 125 g ai/ha, visual injury on 0 to 100 scale (0 no effect, 100 complete control), approx. 10 d; for pest or weed control at 500 g/ha: 500 g ai/ha, 0 to 100 scale, 0 is no effect, 100 is complete control
How it was run: as §1

[13] = tested on: pigweed (Amaranthus retroflexus); assay: Test A postemergence; conditions: Amaranthus retroflexus, post-emergence, 240 h, postemergence, read-out: Pigweed plant response rating; for pest or weed control at 125 g/ha: 125 g ai/ha, visual injury on 0 to 100 scale (0 no effect, 100 complete control), approx. 10 d; for pest or weed control at 500 g/ha: 500 g ai/ha, 0 to 100 scale, 0 is no effect, 100 is complete control
How it was run: as §1

[14] = tested on: ragweed (common ragweed, Ambrosia elatior); assay: Test A postemergence; conditions: Ambrosia artemisiifolia, post-emergence, 240 h, postemergence, read-out: Ragweed plant response rating; for pest or weed control at 125 g/ha: 125 g ai/ha, visual injury on 0 to 100 scale (0 no effect, 100 complete control), approx. 10 d; for pest or weed control at 500 g/ha: 500 g ai/ha, 0 to 100 scale, 0 is no effect, 100 is complete control
How it was run: as §1

[15] = tested on: ryegrass, Italian (Italian ryegrass, Lolium multiflorum); assay: Test A postemergence; conditions: Lolium multiflorum, post-emergence, 240 h, postemergence, read-out: Ryegrass, Italian plant response rating; for pest or weed control at 125 g/ha: 125 g ai/ha, visual injury on 0 to 100 scale (0 no effect, 100 complete control), approx. 10 d; for pest or weed control at 500 g/ha: 500 g ai/ha, 0 to 100 scale, 0 is no effect, 100 is complete control
How it was run: as §1

[16] = tested on: wheat (Triticum aestivum); assay: Test A postemergence; conditions: Triticum aestivum, post-emergence, 240 h, postemergence, read-out: Wheat plant response rating; for plant injury at 125 g/ha: 125 g ai/ha, visual injury on 0 to 100 scale (0 no effect, 100 complete control), approx. 10 d; for plant injury at 500 g/ha: 500 g ai/ha, 0 to 100 scale, 0 is no effect, 100 is complete control
How it was run: as §1

| SMILES | pest or weed control at 125 g/ha [1] [%] | pest or weed control at 500 g/ha [1] [%] | pest or weed control at 125 g/ha [2] [%] | pest or weed control at 500 g/ha [2] [%] | pest or weed control at 125 g/ha [3] [%] | pest or weed control at 500 g/ha [3] [%] | pest or weed control at 125 g/ha [4] [%] | pest or weed control at 500 g/ha [4] [%] | pest or weed control at 125 g/ha [5] [%] | pest or weed control at 500 g/ha [5] [%] | pest or weed control at 125 g/ha [6] [%] | pest or weed control at 500 g/ha [6] [%] | pest or weed control at 125 g/ha [7] [%] | pest or weed control at 500 g/ha [7] [%] | pest or weed control at 125 g/ha [8] [%] | pest or weed control at 500 g/ha [8] [%] | pest or weed control at 125 g/ha [9] [%] | pest or weed control at 500 g/ha [9] [%] | pest or weed control at 125 g/ha [10] [%] | pest or weed control at 500 g/ha [10] [%] | also measured |
| --- | --- | --- | --- | --- | --- | --- | --- | --- | --- | --- | --- | --- | --- | --- | --- | --- | --- | --- | --- | --- | --- |
| CCc1cc(CC)cc([C@H]2CNC(=O)[C@@H]2C(=O)Nc2cccc(F)c2F)c1 [Compound 1139] | 30 | 60 | 90 | 90 | 90 | 90 | 0 | 0 | 50 | 50 | 30 | 70 | 50 | 60 | 0 | 0 | 60 | 90 | 40 | 60 | plant injury at 125 g/ha [11]: 60%; plant injury at 500 g/ha [11]: 80%; pest or weed control at 125 g/ha [12]: 40%; pest or weed control at 500 g/ha [12]: 70%; pest or weed control at 125 g/ha [13]: 0%; pest or weed control at 500 g/ha [13]: 0%; pest or weed control at 125 g/ha [14]: 0%; pest or weed control at 500 g/ha [14]: 40%; pest or weed control at 125 g/ha [15]: 40%; pest or weed control at 500 g/ha [15]: 50%; plant injury at 125 g/ha [16]: 50%; plant injury at 500 g/ha [16]: 70% |
| Cc1c(F)cccc1NC(=O)[C@H]1C(=O)N(C)C[C@@H]1c1cc(F)cc(F)c1 [Compound 1140] | 80 | 80 | 90 | 100 | 100 | 100 | 0 | 40 | 30 | 60 | 30 | 40 | 40 | 50 | 0 | 40 | 90 | 90 | 30 | 70 | plant injury at 125 g/ha [11]: 60%; plant injury at 500 g/ha [11]: 70%; pest or weed control at 125 g/ha [12]: 90%; pest or weed control at 500 g/ha [12]: 90%; pest or weed control at 125 g/ha [13]: 0%; pest or weed control at 500 g/ha [13]: 0%; pest or weed control at 125 g/ha [14]: 0%; pest or weed control at 500 g/ha [14]: 30%; pest or weed control at 125 g/ha [15]: 50%; pest or weed control at 500 g/ha [15]: 70%; plant injury at 125 g/ha [16]: 30%; plant injury at 500 g/ha [16]: 70% |
